Measurements from patent publication US6476263B1, “Compounds for inhibiting β-amyloid peptide release and/or its synthesis” (Elan Pharmaceuticals, Inc., priority 1996, dated 2002).
Residues, ends and D or L forms follow the SMILES beside them.

Structure (SMILES) | melting point
CCCC[C@H](NC(=O)Cc1cc(F)cc(F)c1)C(=O)N[C@H](C(=O)OC)c1ccccc1 [Example 252, N-[N-(3,5-Difluorophenylacetyl)-L-norleucinyl]-L-phenylglycine Methyl Ester] | 188 to 189.5 °C
COC(=O)C1Cc2ccccc2CN1C(=O)[C@H](C)NC(=O)Cc1cc(F)cc(F)c1 (stereo partly drawn) [Example 32, Methyl 2-[N-(3,5-Difluorophenylacetyl)-L-alaninyl]-1,2,3,4-tetrahydroisoquinoline-3-carboxylate] | 37 to 40 °C
CC(C)(C)OC(=O)[C@@H](NC(=O)[C@@H](NC(=O)Cc1cc(F)cc(F)c1)c1ccccc1)c1ccccc1 [Example 263, N-[N-(3,5-Difluorophenylacetyl)-L-phenylglycinyl]-L-phenylglycine tert-Butyl Ester] | 185 °C
CCOC(=O)C(NC(=O)[C@H](C)NC(=O)Cc1cc(F)cc(F)c1)c1ccccc1F (stereo partly drawn) [Example 135, Ethyl N-[N-(3,5-Difluorophenylacetyl)-L-alaninyl]-2-amino-2-(2-fluorophenyl)acetate] | 153 to 170 °C
COC(=O)[C@@H](NC(=O)CNC(=O)Cc1cc(F)cc(F)c1)c1ccccc1 [Example 198, N-[N-(3,5-Difluorophenylacetyl)glycinyl]-L-phenylglycine Methyl Ester] | 142.3 °C
CCOC(=O)[C@H](C)NC(=O)[C@@H](NC(=O)CC1CCCCC1)c1ccccc1 [Example 110, N-[N-(Cyclohexylacetyl)L-phenylglycinyl]-L-alanine Ethyl Ester] | 196 to 198 °C
CCOC(=O)C(C)(NC(=O)[C@H](C)NC(=O)Cc1cc(F)cc(F)c1)c1ccccc1 (stereo partly drawn) [Example 123, Ethyl N-[N-(3,5-Difluorophenylacetyl)-L-alaninyl]-2-amino-2-phenylpropionate] | 128 to 130 °C
CCOC(=O)CNC(=O)[C@H](C)NC(=O)Cc1cccc([N+](=O)[O-])c1 [Example 77, N-[N-(3-Nitrophenylacetyl)-L-alaninyl]glycine Ethyl Ester] | 164 to 165 °C
CCCC[C@H](NC(=O)[C@H](C)NC(=O)Cc1cc(F)cc(F)c1)C(=O)O [Example 327, N-[N-(3,5-Difluorophenylacetyl)-L-alaninyl]-L-norleucine] | 158.5 to 160.5 °C
COC(=O)[C@H](Cc1ccccc1)NC(=O)[C@H](C)NC(=O)CC1CCCC1 [Example 68, N-[N-(Cyclopentylacetyl)-L-alaninyl]-L-phenylalanine Methyl Ester] | 137 to 139 °C
CCOC(=O)[C@H](C)NC(=O)[C@H](C)NC(=O)Cc1cccc([N+](=O)[O-])c1 [Example 76, N-[N-(3-Nitrophenylacetyl)-L-alaninyl]-L-alanine Ethyl Ester] | 193 to 195 °C
COC(=O)[C@H](NC(=O)[C@H](C)NC(=O)Cc1cc(F)cc(F)c1)c1cccs1 [Example 178, Methyl N-[N-(3,5-Difluorophenylacetyl)-L-alaninyl]-(S)-2-amino-2-(2-thienyl)acetate] | 180 to 181 °C
COC(=O)[C@H](Cc1c[nH]c2ccccc12)NC(=O)[C@H](C)NC(=O)Cc1cc(F)cc(F)c1 [Example 106, N-[N-(3,5-Difluorophenylacetyl)-L-alaninyl]-L-tryptophan Methyl Ester] | 191 to 193 °C
CC[C@H](NC(=O)[C@H](C)NC(=O)Cc1ccccc1)C(=O)OC [Example 208, Methyl N-[N-(Phenylacetyl)-L-alaninyl]-2-(S)-aminobutanoate] (HELM PEPTIDE1{[O=C(Cc1ccccc1)[*:2]].A.[Abu].[CO[*:1]]}$$$$V2.0) | 120 °C
COC(=O)[C@H](Cc1ccccc1)NC(=O)[C@H](C)NC(=O)Cc1ccccc1 [Example 204, N-[N-(Phenylacetyl)-L-alaninyl]-L-phenylalanine Methyl Ester] | 148 to 149.5 °C
